Data reported in patent publication US10208021B2, “Substituted tetrahydroisoquinoline compounds as factor XIa inhibitors” (BRISTOL-MYERS SQUIBB COMPANY, priority 2011, dated 2019).

Molecular target: purified human Factor XIa (Homo sapiens (Human), UniProt P03951)
Test: Factor XIa chromogenic substrate (S-2366) inhibition assay
Type: biochemical
In short: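 Ki derived from reaction velocities measured in the presence of inhibitor. Purified protease hydrolysed the chromogenic substrate; rate of absorbance change was followed over 20-180 minutes, depending on the protease.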

[1] = substrate S-2366, activity ranges, Table A

Chain of purified human Factor XIa (P03951 388-625): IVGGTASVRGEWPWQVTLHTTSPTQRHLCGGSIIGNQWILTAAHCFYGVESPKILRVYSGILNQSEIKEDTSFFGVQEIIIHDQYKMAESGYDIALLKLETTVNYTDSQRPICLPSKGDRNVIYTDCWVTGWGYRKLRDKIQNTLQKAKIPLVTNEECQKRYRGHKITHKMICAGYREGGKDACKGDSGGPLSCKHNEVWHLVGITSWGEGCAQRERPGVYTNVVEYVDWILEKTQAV
Chain of purified human Factor XIa (P03951 19-387 partner): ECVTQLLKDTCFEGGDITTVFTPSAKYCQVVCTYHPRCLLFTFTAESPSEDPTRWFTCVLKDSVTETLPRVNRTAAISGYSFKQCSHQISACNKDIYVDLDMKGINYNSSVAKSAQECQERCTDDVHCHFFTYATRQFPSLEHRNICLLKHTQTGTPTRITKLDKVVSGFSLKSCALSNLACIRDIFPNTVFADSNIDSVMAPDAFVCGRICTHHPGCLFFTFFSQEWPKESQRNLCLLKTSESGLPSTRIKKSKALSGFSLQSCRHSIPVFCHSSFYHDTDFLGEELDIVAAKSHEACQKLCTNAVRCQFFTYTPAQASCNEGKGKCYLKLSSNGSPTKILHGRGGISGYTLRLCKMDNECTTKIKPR

SMILES	Ki [1]	Ki (substrate S-2366, Table 1)
O=C(O)c1ccc(NC(=O)C2c3cccc(N4CCC(N5CCCC5)CC4)c3CCN2C(=O)/C=C/c2c(F)ccc(Cl)c2F)cc1 (racemic) [Example 180]	< 5 nM	–
CCOC(=O)c1ccc(NC(=O)C2c3cccc(N4CCC(N5CCCC5)CC4)c3CCN2C(=O)C=Cc2c(C(F)(F)F)ccc(Cl)c2F)cc1 (centres unmarked) [Example 177]	5 to 10 nM	–
CCOC(=O)c1cc(C)n(-c2cccc3c2CCN(C(=O)/C=C/c2c(-n4cnnn4)ccc(Cl)c2F)C3C(=O)Nc2ccc(C(=O)O)cc2)n1 (centres unmarked) [Example 241, (E)-4-(2-(3-(3-Chloro-2-fluoro-6-(1H-tetrazol-1-yl)phenyl)acryloyl)-5-(3-(ethoxycarbonyl)-5-methyl-1H-pyrazol-1-yl)-1,2,3,4-tetrahydroisoquinoline-1-carboxamido)benzoic acid]	< 5 nM	–
CCOC(=O)c1ccc(NC(=O)[C@@H]2c3cccc(N4CCNCC4=O)c3CCN2C(=O)/C=C/c2c(-n3cnnn3)ccc(Cl)c2F)cc1 [Example 190]	5 to 10 nM	–
O=C(O)c1ccc(NC(=O)C2c3cccc(N4CCC(N5CCCC5)CC4)c3CCN2C(=O)C=Cc2c(C(F)(F)F)ccc(Cl)c2F)cc1 (centres unmarked) [Example 179]	100 to 500 nM	–
O=C(Nc1ccc2cn[nH]c2c1)C1c2cccc(N3CCNCC3)c2CCN1C(=O)/C=C/c1c(-n2cnnn2)ccc(Cl)c1F (centres unmarked) [Example 11]	< 5 nM	–
CCOC(=O)c1ccc(NC(=O)C2c3cccc(N4CCC5(CCN(C)C5=O)CC4)c3CCN2C(=O)/C=C/c2c(-n3cnnn3)ccc(Cl)c2F)cc1 (racemic) [Example 109]	5 to 10 nM	–
N[C@H]1CC[C@H](NC(=O)C2c3cccc(N4CCC(N5CCCC5)CC4)c3CCN2C(=O)/C=C/c2c(-n3cnnn3)ccc(Cl)c2F)CC1 (mixture of isomers) [Example 235]	–	74.5 nM
CC1(C)CCN(c2cccc3c2CCN(C(=O)/C=C/c2c(-n4cnnn4)ccc(Cl)c2F)C3C(=O)Nc2ccc(C(=O)O)cc2)CC1 (racemic) [Example 117]	< 5 nM	–
O=C(O)c1ccc(NC(=O)C2c3cccc(N4CCNCC4)c3CCN2C(=O)C=Cc2c(-n3cnnn3)ccc(Cl)c2F)cc1 (centres unmarked) [Example 12]	5 to 10 nM	–
CC(=O)OC1CCN(c2cccc3c2CCN(C(=O)/C=C/c2c(-n4cnnn4)ccc(Cl)c2F)C3C(=O)Nc2ccc(C(=O)O)cc2)CC1 (racemic) [Example 137]	< 5 nM	–
